Non-standard residues stand in square brackets, D forms with d. Residues, ends and D or L forms follow the SMILES beside them. NMeV = CN[C@H](C(=O)O)C(C)C; βAla = NCCC(=O)O
Legend:
[1] = test system: amelanotic hamster melanoma A-Mel-3; assay: Intravital fluorescence microscopy of tumour angiogenesis and microcirculation in the dorsal skinfold chamber; format: in vivo, Syrian Golden hamster; conditions: for Appearance of tumour vasculature: 3 days after tumour cell implantation, FITC-Dextran plasma marker; for Functional vessel density (FVD): 30 mg kg^−1 b.w. i.p. every 12 h from day 1, n=6, mean±s.e.m.; for Leucocyte–endothelium interaction in tumour microvessels: rhodamine 6G-stained leucocytes
Experimental: (§1) For quantification of tumour angiogenesis, a dorsal skinfold chamber preparation consisting of two symmetrical titanium frames was surgically implanted into the dorsal skin as described earlier in detail ([Asaishi et al, 1981]; [Endrich et al, 1982]). This is considered to cause the least distress upon the animal because the dorsal skin is extremely expansible. Following implantation of the transparent chamber and a recovery period of 48 h from anaesthesia and microsurgery, preparations fulfilling the criteria of an intact microcirculation were implanted with 2×10^5 cells of the amelanotic melanoma of the hamster A-Mel-3 ([Fortner et al, 1961]). Fine polyethylene catheters (PE10, inner diameter 0.28 mm) were permanently inserted into the right jugular vein 48 h before first measurement to allow injection of fluorescent agents for intravital fluorescence microscopy.
(§2) Quantification of tumour angiogenesis using intravital fluorescence microscopy have been described in detail elsewhere ([Asaishi et al, 1981]; [Dellian et al, 1995], [1996]). In brief, the awake animal was trained to crawl into a transparent plastic tube and was placed on a custom-made stage under a modified Leitz microscope (Orthoplan; Leitz, Munich, Germany). FITC-labelled dextran (Sigma, Deisenhofen, Germany; MW 500000; 0.05–0.1 ml of a 5% solution in 0.9% NaCl) as a plasma marker and rhodamine 6G (Molecular Probes, Eugene, OR, USA; 0.04 ml of a 0.05% solution in 0.9% NaCl) to label white blood cells in vivo, were injected i.v. to visualise microcirculation and leucocyte–endothelium interaction, respectively. […] Selective observation of FITC-labelled plasma was possible using epi-illumination with a 100 W mercury lamp attached to a Ploemopack illuminator with a Leitz I2/3 filter block (excitation 450–490 nm, emission ⩽515 nm) and rhodamine 6G-stained leucocytes were visualised using a Leitz N2 filter block (excitation 530–560 nm, emission ⩽580 nm). Intravital microscopy was performed 3, 5, 9 and 13 days after implantation of the tumour cells. At least 3–5 sites of interest per animal were randomly selected in centre and periphery of the tumour. Images were acquired by a SIT video camera (C2400-08; Hamamatsu Herrsching, Germany) and recorded on S-VHS video tape (Sony) for subsequent analysis. Parallel to microvascular observations the area covered by tumour in the chamber preparation was registered on videotape using a Leitz macroscope with video camera (XC-77; Sony) to evaluate tumour growth. The tumour area (mm^2) was quantified from videotape by digital image analysis.
Analysis of microcirculatory parameters was performed off-line from video tape by an image analysis system (Cap Image; Zeintl, Heidelberg, Germany). This system described in detail by [Zeintl et al (1989)] and [Klyscz et al (1997)] allows measurement of functional vessel density (FVD) as a parameter of angiogenic activity ([Dellian et al, 1996]). FVD is defined as the total length of perfused microvessels per unit area of observation and is given in cm^−1. Red blood cell velocity (vRBC) was quantified with the line shift diagram method according to [Klyscz et al (1997)] in mm s^−1. Rolling leucocytes were defined as population of cells temporarily interacting with the vessel wall and thus having a velocity at least 50% below vRBC in the same vessel. Adherent leucocytes were given as the number of leucocytes remaining stationary for at least 30 s per square millimetre of vessel wall surface ([Atherton and Born, 1972]; [Dellian et al, 1996]).
(§3) The cyclic integrin αv antagonist EMD121974 (cyclic Arg-Gly-Asp-D-Phe(N-methyl)Val) ([Dechantsreiter et al, 1999]) and the control peptide EMD135981 (cyclic Arg-β-Ala-Asp-D-Phe(N-methyl)Val) were synthesised and characterised at Merck KgAa (Darmstadt, Germany). In pilot studies pharmacokinetics of the peptides were compared after intravenous and intraperitoneal injection in hamsters. […]

[2] = test system: amelanotic hamster melanoma A-Mel-3; assay: Tumour growth (tumour area) in the dorsal skinfold chamber by video macroscopy; format: in vivo, Syrian Golden hamster; conditions: 30 mg kg^−1 i.p. every 12 h; for Tumour area: n=6, mean±s.e.m.
Experimental: as §1, §2
(§4) The cyclic integrin αv antagonist EMD121974 (cyclic Arg-Gly-Asp-D-Phe(N-methyl)Val) ([Dechantsreiter et al, 1999]) and the control peptide EMD135981 (cyclic Arg-β-Ala-Asp-D-Phe(N-methyl)Val) were synthesised and characterised at Merck KgAa (Darmstadt, Germany). In pilot studies pharmacokinetics of the peptides were compared after intravenous and intraperitoneal injection in hamsters. […] Therefore, we chose the following set-up for administration: Peptides were dissolved in PBS (10 mg ml^−1). One day after implantation of tumour cells, animals were randomly assigned to two groups (n=6) and RGD-peptide EMD121974 or control-peptide EMD135981 were given i.p. every 12 h (30 mg kg^−1 b.w.) until the end of the experiments.

subcutaneous A-Mel-3 = assay: Growth and lymph node metastasis of subcutaneous A-Mel-3 tumours; format: in vivo, Syrian Golden hamster; conditions: for Subcutaneous tumour volume / growth pattern: calliper measurement every other day from day 5, 30 mg kg^−1 i.p. every 12 h
Experimental: Male Syrian Golden Hamsters (weight, age and housing as described above) were anaesthetised with pentobarbital and the dorsal skin was shaven and chemically depilated (Pilcamed, Schwarzkopf, Germany). Cells (4 to 6×10^6) of the A-Mel-3 were suspended in a 10 μl volume and injected s.c. over the lumbosacral region of the dorsal skin. This is considered to cause the least distress upon the animal because the dorsal skin is extremely expansible. Starting on day 5 after tumour cell implantation, the longer (l) and shorter (w) perpendicular axes and the height (h) of each tumour nodule were measured with callipers every other day. Metastases of the animals were determined by palpation of axillar and inguinal lymph nodes. The day when metastases were first palpable the animal was defined as metastasised. To minimise the pain and distress of the animals no biopsies were taken from the lymph nodes during the observation time. This was due to the known fact that the axillar or inguinal lymph nodes were the most frequent sites of metastasis formation ([Fortner et al, 1961]; [Weiss et al, 1990]). After the end of the experiments when animals were euthanised, biopsies were taken to confirm histologically the invasion of the lymph nodes. Tumour volume was calculated according to the formula Vt=0.837×l×w×h ([Weiss et al, 1990]).
as §4
Results are presented as mean±s.e.m. Data were evaluated using Wilcoxon–Mann–Whitney U and Kruskal–Wallis test, respectively (SigmaStat; Jandel Scientific, San Rafael, CA, USA). Metastasis analysis was performed according to the Kaplan–Meier method ([Kaplan and Meier, 1958]) and the differences were compared for statistical significance using the Cox-F test ([Lee, 1975], [1980]) with the statistical software program Statistica (StatSoft, Inc, 1997, Tulsa, OK, USA). P values smaller than 5% were considered to be significant.

[3] = Pilot pharmacokinetics after intravenous and intraperitoneal injection; format: in vivo, hamster; conditions: hamsters, pilot study
Experimental: as §4

[4] = Tolerability during treatment (side effects, body weight, behaviour); format: in vivo, Syrian Golden hamster; conditions: 30 mg kg^−1 i.p. twice a day
Experimental: Experiments were performed with male Syrian Golden Hamsters (6–8 weeks old, 50–60 g body weight (bw)) in accordance with institutional guidelines after approval of the animal committee of the Bavarian state. The animals were housed one per cage and had free access to tap water and standard laboratory food throughout the experiments. Animals were inspected at least two times a day by specialised animal colony staff to assure a normal clinical condition (including appearance, posture, behaviour and physiological responses). Particular attention was given to body weight and any signs of discomfort, ulceration or inflammation. All surgical procedures were performed under pentobarbital anaesthesia (50 mg kg^−1 b.w., i.p.; Nembutal, Sanofia-Leva, Hannover, Germany). The experiments met all the standards required by the UKCCCR guidelines for the welfare of animals in experimental neoplasia (United Kingdom Co-ordinating Committee on Cancer Research ([UKCCCR), 1998]).
as §3

[5] = day 13 after tumour implantation

SMILES | Appearance of tumour vasculature [1] | Functional vessel density (FVD) ([1]; day 3 after tumour cell implantation) | Functional vessel density (FVD) [1, 5] | Red blood cell velocity (vRBC) versus control peptide ([1]; days 9 and 13, 30 mg kg^−1 i.p. every 12 h) | Vessel diameters, RGD peptide versus control peptide ([1]; intravital microscopy, 30 mg kg^−1 i.p. every 12 h) | Leucocyte–endothelium interaction in tumour microvessels ([1]; 30 mg kg^−1 i.p. every 12 h) | Tumour area ([2]; day 9) | Tumour area ([2]; day 13) | Tumour area versus controls ([2]; days 3 and 5) | Subcutaneous tumour volume / growth pattern (subcutaneous A-Mel-3) | Effect on tumour growth of 30 mg kg^−1 every 12 h compared to 30 mg every 2 days (subcutaneous A-Mel-3; pilot study) | half-life ([3]; Syrian Golden, hamster, plasma, ip, after intraperitoneal injection, read-out: Plasma half-life time) | Area under the curve, intraperitoneal versus intravenous administration [3] | Side effects in treated animals [4] | Body weight ([4]; control and treated animals) | Day on which FVD reached its maximum value ([1]; measurements on days 3, 5, 9 and 13, 30 mg kg^−1 i.p. every 12 h) | Day lymph node metastasis first palpable (subcutaneous A-Mel-3; in two animals of the group, palpation) | Palpable lymph node metastasis on day 11 (subcutaneous A-Mel-3; two days after day 9, palpation of axillar and inguinal lymph nodes)
CC(C)[C@H]1C(=O)N[C@@H](CCCNC(=N)N)C(=O)NCC(=O)N[C@@H](CC(=O)O)C(=O)N[C@H](Cc2ccccc2)C(=O)N1C [EMD121974, cyclic Arg-Gly-Asp-D-Phe(N-methyl)Val] | only individual sprouts as signs of early angiogenesis were visible | 32.7 ± 12.1 cm⁻¹ | 156.9 ± 15.6 cm⁻¹ | slightly lower | no differences | almost absent | 20.5±1.4 mm^2 | 49.1±4.8 mm^2 | slightly smaller than controls | significantly smaller in comparison to controls on days 7 until 15 | slightly higher effect on tumour growth | 47 min | similar | no side effects were observed | increased similar in control and treated animals | – | – | –
CC(C)[C@H]1C(=O)N[C@@H](CCCNC(=N)N)C(=O)NCCC(=O)N[C@@H](CC(=O)O)C(=O)N[C@H](Cc2ccccc2)C(=O)N1C [EMD135981, cyclic Arg-β-Ala-Asp-D-Phe(N-methyl)Val, reference compound] (cyclo(D[dF][NMeV]R[βAla])) | dense, chaotic structured network | – | 108.2 ± 10.6 cm⁻¹ | – | – | almost absent | 28.1±3.2 mm^2 | 80.94±6.1 mm^2 | – | nearly exponential growth | – | – | – | – | – | 5 days | 9 days | palpable metastasis was found in all control animals

Source: PMC2375318, “Inhibition of the alpha-ν integrins with a cyclic RGD peptide impairs angiogenesis, growth and metastasis of solid tumours in vivo” (British Journal of Cancer, 2002)
